Results reported in patent US9730914B2, “3,5-diaminopyrazole kinase inhibitors” (Axikin Pharmaceuticals, Inc., priority 2014, dated 2017).

Assays:
[1] = target: T1, kinase domain protein of RC kinase (RCK) (Homo sapiens, UniProt Q56UN5); experiment: Kinase competition binding assay (Kd, qPCR readout), RC kinase; settings: Kd class, read-out: RCK Activity Level
T1 construct: made in house; host or cells: E. coli BL21-derived host (T7 phage) or HEK-293
T1 sequence (Q56UN5 1061-1324 limits assumed): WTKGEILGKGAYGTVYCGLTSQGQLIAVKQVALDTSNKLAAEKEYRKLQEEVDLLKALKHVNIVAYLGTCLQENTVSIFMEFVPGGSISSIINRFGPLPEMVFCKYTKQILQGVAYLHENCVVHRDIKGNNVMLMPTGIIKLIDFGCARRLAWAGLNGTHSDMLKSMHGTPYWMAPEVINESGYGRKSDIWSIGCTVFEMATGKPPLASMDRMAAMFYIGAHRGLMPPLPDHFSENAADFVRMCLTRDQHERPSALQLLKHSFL
Outline: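 Competition binding: DNA-tagged kinase (T7 phage or HEK-293-expressed) plus immobilized biotinylated ligand beads and compound, 1 h at room temperature, 1% DMSO. Bead-bound kinase eluted and quantified by qPCR. Kd from 11-point 3-fold dilution, top 30,000 nM, retested lower if below 0.5 nM.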

[2] = target: T2, JAK2 (Homo sapiens, UniProt O60674); experiment: Kinase competition binding assay (Kd, qPCR readout), JAK2; settings: for Kd: Kd class, JAK2, read-out: JAK2 Activity Level; for RCK:JAK2 selectivity ratio: ratio Kd (JAK2): Kd(RCK)
T2 construct: made in house; host or cells: E. coli BL21-derived host (T7 phage) or HEK-293
T2 sequence (O60674 840-1132 limits assumed): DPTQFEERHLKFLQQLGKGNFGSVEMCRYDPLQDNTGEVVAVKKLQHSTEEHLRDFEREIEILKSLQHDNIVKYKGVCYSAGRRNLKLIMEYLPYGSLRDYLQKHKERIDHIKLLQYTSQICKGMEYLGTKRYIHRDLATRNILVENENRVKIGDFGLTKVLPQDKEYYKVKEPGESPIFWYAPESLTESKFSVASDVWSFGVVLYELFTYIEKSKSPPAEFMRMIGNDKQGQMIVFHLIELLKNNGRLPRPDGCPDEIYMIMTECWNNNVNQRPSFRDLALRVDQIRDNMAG
Outline: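 Competition binding: DNA-tagged kinase (T7 phage or HEK-293-expressed), immobilized biotinylated ligand beads and compound in SeaBlock/PBS/Tween/DTT buffer, 1 hour at room temperature; bound kinase eluted and quantified by qPCR. Kd from 11-point 3-fold dilution, top 30,000 nM typically, final DMSO 1%.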

[3] = target: T3, JAK3 (Homo sapiens, UniProt P52333); experiment: Kinase competition binding assay (Kd, qPCR readout), JAK3; settings: for Kd: Kd class, JAK3, read-out: JAK3 Activity Level; for RCK:JAK3 selectivity ratio: ratio Kd (JAK3): Kd (RCK)
T3 construct: made in house; host or cells: E. coli BL21-derived host (T7 phage) or HEK-293
T3 sequence (P52333 811-1124 limits assumed): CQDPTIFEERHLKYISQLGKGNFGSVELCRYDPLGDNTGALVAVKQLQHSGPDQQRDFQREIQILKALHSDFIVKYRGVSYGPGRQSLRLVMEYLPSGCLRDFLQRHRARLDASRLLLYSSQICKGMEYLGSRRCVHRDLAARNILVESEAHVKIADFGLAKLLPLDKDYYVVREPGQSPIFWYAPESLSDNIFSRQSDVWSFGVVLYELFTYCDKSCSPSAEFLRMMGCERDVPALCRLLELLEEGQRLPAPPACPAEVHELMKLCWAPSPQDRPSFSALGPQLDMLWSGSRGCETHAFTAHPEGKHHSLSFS
Outline: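 Kd values were derived from 11-point, 3-fold compound series at 1% DMSO, usually topping at 30,000 nM, with retesting from a lower top when under 0.5 nM. It competed with bead-immobilized ligand for 1 h at room temperature, and the captured kinase was measured by qPCR after elution.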

Kd [1] [nM]	Kd [2] [nM]	Kd [3] [nM]	Structure (SMILES)	RCK:JAK2 selectivity ratio [2]	RCK:JAK3 selectivity ratio [3]
> 1000	> 1000	> 1000	Cc1cc(CNc2[nH]nc(Nc3ccc(N)cc3)c2C(N)=O)cc(C)c1O [Compound 47, 3-((4-aminophenyl)amino)-5-((4-hydroxy-3,5-dimethylbenzyl)amino)-1H-pyrazole-4-carboxamide]	C (C represents 1<Kd (JAK2): Kd (RCK)<10)	C (C represents 1<Kd (JAK3): Kd (RCK)<10)
100 to 1000	100 to 1000	> 1000	Cc1cc(CNc2[nH]nc(Nc3ccc(S(N)(=O)=O)cc3)c2C(N)=O)cc(C)c1O [Compound 48, 5-((4-hydroxy-3,5-dimethylbenzyl)amino)-3-((4-sulfamoylphenyl)amino)-1H-pyrazole-4-carboxamide]	C (C represents 1<Kd (JAK2): Kd (RCK)<10)	B (B represents 10<Kd (JAK3): Kd (RCK)<100)
< 50	100 to 1000	100 to 1000	Cc1cc(CNc2[nH]nc(Nc3ccc(N4CCC(N5CCCC5)CC4)nc3)c2C(N)=O)cc(C)c1O [Compound 49, 5-((4-hydroxy-3,5-dimethylbenzyl)amino)-3-((6-(4-(pyrrolidin-1-yl)piperidin-1-yl)pyridin-3-yl)amino)-1H-pyrazole-4-carboxamide]	A (A represents Kd (JAK2): Kd (RCK)>100)	A (A represents Kd (JAK3): Kd (RCK)>100)
100 to 1000	> 1000	> 1000	Cc1cc(CNc2[nH]nc(Nc3ccc(N(C)C)cc3)c2C(N)=O)cc(C)c1O [Compound 50, 3-((4-(dimethylamino)phenyl)amino)-5-((4-hydroxy-3,5-dimethylbenzyl)amino)-1H-pyrazole-4-carboxamide]	C (C represents 1<Kd (JAK2): Kd (RCK)<10)	C (C represents 1<Kd (JAK3): Kd (RCK)<10)
< 50	100 to 1000	> 1000	Cc1cc(CNc2[nH]nc(Nc3ccc(CN4CCOCC4)cc3)c2C(N)=O)cc(C)c1O [Compound 51, 5-((4-hydroxy-3,5-dimethylbenzyl)amino)-3-((4-(morpholinomethyl)phenyl)amino)-1H-pyrazole-4-carboxamide]	B (B represents 10<Kd(JAK2): Kd (RCK)<100)	B (B represents 10<Kd (JAK3): Kd (RCK)<100)
> 1000	> 1000	> 1000	COc1cccc(Nc2n[nH]c(NCc3cc(C)c(O)c(C)c3)c2C(N)=O)c1 [Compound 52, 5-((4-hydroxy-3,5-dimethylbenzyl)amino)-3-((3-methoxyphenyl)amino)-1H-pyrazole-4-carboxamide]	C (C represents 1<Kd (JAK2): Kd (RCK)<10)	C (C represents 1<Kd (JAK3): Kd (RCK)<10)
100 to 1000	> 1000	> 1000	Cc1cc(CNc2[nH]nc(Nc3ccc(NC(=O)c4ccc(F)cc4)cc3)c2C(N)=O)cc(C)c1O [Compound 53, 3-((4-(4-fluorobenzamido)phenyl)amino)-5-((4-hydroxy-3,5-dimethylbenzyl)amino)-1H-pyrazole-4-carboxamide]	A (A represents Kd (JAK2): Kd (RCK)>100)	A (A represents Kd (JAK3): Kd (RCK)>100)
100 to 1000	> 1000	> 1000	Cc1cc(CNc2[nH]nc(Nc3ccc(-c4cc[nH]n4)cc3)c2C(N)=O)cc(C)c1O [Compound 54, 3-((4-(1H-pyrazol-3-yl)phenyl)amino)-5-((4-hydroxy-3,5-dimethylbenzyl)amino)-1H-pyrazole-4-carboxamide]	B (B represents 10<Kd(JAK2): Kd (RCK)<100)	B (B represents 10<Kd (JAK3): Kd (RCK)<100)
100 to 1000	> 1000	> 1000	COc1ccccc1C(=O)Nc1ccc(Nc2n[nH]c(NCc3cc(C)c(O)c(C)c3)c2C(N)=O)cc1 [Compound 55, 5-((4-hydroxy-3,5-dimethylbenzyl)amino)-3-((4-(2-methoxybenzamido)phenyl)amino)-1H-pyrazole-4-carboxamide]	B (B represents 10<Kd(JAK2): Kd (RCK)<100)	B (B represents 10<Kd (JAK3): Kd (RCK)<100)
100 to 1000	> 1000	> 1000	COc1cccc(C(=O)Nc2ccc(Nc3n[nH]c(NCc4cc(C)c(O)c(C)c4)c3C(N)=O)cc2)c1 [Compound 56, 5-((4-hydroxy-3,5-dimethylbenzyl)amino)-3-((4-(3-methoxybenzamido)phenyl)amino)-1H-pyrazole-4-carboxamide]	B (B represents 10<Kd(JAK2): Kd (RCK)<100)	A (A represents Kd (JAK3): Kd (RCK)>100)
50 to 100	> 1000	> 1000	COc1ccc(C(=O)Nc2ccc(Nc3n[nH]c(NCc4cc(C)c(O)c(C)c4)c3C(N)=O)cc2)cc1 [Compound 57, 5-((4-hydroxy-3,5-dimethylbenzyl)amino)-3-((4-(4-methoxybenzamido)phenyl)amino)-1H-pyrazole-4-carboxamide]	A (A represents Kd (JAK2): Kd (RCK)>100)	A (A represents Kd (JAK3): Kd (RCK)>100)
100 to 1000	> 1000	> 1000	Cc1cc(CNc2[nH]nc(Nc3ccc(N4CCC(C(C)C)CC4)cc3)c2C(N)=O)cc(C)c1O [Compound 58, 5-((4-hydroxy-3,5-dimethylbenzyl)amino)-3-((4-(4-isopropylpiperidin-1-yl)phenyl)amino)-1H-pyrazole-4-carboxamide]	B (B represents 10<Kd(JAK2): Kd (RCK)<100)	B (B represents 10<Kd (JAK3): Kd (RCK)<100)
100 to 1000	> 1000	> 1000	Cc1cc(CNc2[nH]nc(Nc3ccc(N4CCOCC4=O)cc3)c2C(N)=O)cc(C)c1O [Compound 59, 5-((4-hydroxy-3,5-dimethylbenzyl)amino)-3-((4-(3-oxomorpholino)phenyl)amino)-1H-pyrazole-4-carboxamide]	B (B represents 10<Kd(JAK2): Kd (RCK)<100)	B (B represents 10<Kd (JAK3): Kd (RCK)<100)
> 1000	> 1000	> 1000	Cc1cc(CNc2[nH]nc(Nc3ccc(CC#N)cc3)c2C(N)=O)cc(C)c1O [Compound 61, 3-((4-(cyanomethyl)phenyl)amino)-5-((4-hydroxy-3,5-dimethylbenzyl)amino)-1H-pyrazole-4-carboxamide]	C (C represents 1<Kd (JAK2): Kd (RCK)<10)	C (C represents 1<Kd (JAK3): Kd (RCK)<10)
100 to 1000	> 1000	> 1000	Cc1cc(CNc2[nH]nc(Nc3ccc(NC(=O)c4ccc(C(F)(F)F)cc4)cc3)c2C(N)=O)cc(C)c1O [Compound 62, 5-((4-hydroxy-3,5-dimethylbenzyl)amino)-3-((4-(4-(trifluoromethyl)benzamido)phenyl)amino)-1H-pyrazole-4-carboxamide]	B (B represents 10<Kd(JAK2): Kd (RCK)<100)	B (B represents 10<Kd (JAK3): Kd (RCK)<100)
100 to 1000	> 1000	> 1000	Cc1cc(CNc2[nH]nc(Nc3ccc(N4CCC(C)CC4)cc3)c2C(N)=O)cc(C)c1O [Compound 63, 5-((4-hydroxy-3,5-dimethylbenzyl)amino)-3-((4-(4-methylpiperidin-1-yl)phenyl)amino)-1H-pyrazole-4-carboxamide]	B (B represents 10<Kd(JAK2): Kd (RCK)<100)	B (B represents 10<Kd (JAK3): Kd (RCK)<100)
< 50	< 50	< 50	Cc1cc(CNc2[nH]nc(Nc3ccc(-n4ccnc4)cc3)c2C(N)=O)cc(C)c1O [drawing 179, reference compound]	–	–
< 50	< 50	< 50	COc1ccc(Nc2n[nH]c(NCc3cc(C)c(O)c(C)c3)c2C(N)=O)cc1 [drawing 180, reference compound]	–	–
> 1000	> 1000	> 1000	Cc1cc(CNc2[nH]nc(Nc3cccc(Cl)c3)c2C(N)=O)cc(C)c1O [reference compound]	C (C represents 1<Kd (JAK2): Kd (RCK)<10)	C (C represents 1<Kd (JAK3): Kd (RCK)<10)
< 50	< 50	< 50	NC(=O)c1c(Nc2ccc(S(N)(=O)=O)cc2)n[nH]c1NCc1ccc(O)cc1 [reference compound]	D (D represents Kd(JAK2): Kd (RCK)<1)	D (D represents Kd (JAK3): Kd(RCK)<1)
